In PubChem BioAssay (NCI):
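Cultured in 96-well plates, cells were exposed to test compound for 48 hours across five concentrations. TGI is the concentration that stops growth completely.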

Experiments:
Test in all cases: NCI tumour cell line growth inhibition, 48 h
COLO 205 colon = tested on: COLO 205 colon
DLD-1 colon = tested on: DLD-1 colon
EKVX NSCLC = tested on: EKVX NSCLC
HCC-2998 colon = tested on: HCC-2998 colon
HCT-116 colon = tested on: HCT-116 colon
HOP-62 NSCLC = tested on: HOP-62 NSCLC
HOP-92 NSCLC = tested on: HOP-92 NSCLC
M19-MEL melanoma = tested on: M19-MEL melanoma
MOLT-4 leukemia = tested on: MOLT-4 leukemia
RPMI-8226 leukemia = tested on: RPMI-8226 leukemia
RXF 393 renal = tested on: RXF 393 renal
SF-268 CNS = tested on: SF-268 CNS
SF-539 CNS = tested on: SF-539 CNS
SK-MEL-28 melanoma = tested on: SK-MEL-28 melanoma
SK-OV-3 ovarian = tested on: SK-OV-3 ovarian
SN12C renal = tested on: SN12C renal
SNB-19 CNS = tested on: SNB-19 CNS
SW-620 colon = tested on: SW-620 colon
UACC-257 melanoma = tested on: UACC-257 melanoma
UACC-62 melanoma = tested on: UACC-62 melanoma

| SMILES | TGI (COLO 205 colon) [µM] | TGI (DLD-1 colon) [µM] | TGI (EKVX NSCLC) [µM] | TGI (HCC-2998 colon) [µM] | TGI (HCT-116 colon) [µM] | TGI (HOP-62 NSCLC) [µM] | TGI (HOP-92 NSCLC) [µM] | TGI (M19-MEL melanoma) [µM] | TGI (MOLT-4 leukemia) [µM] | TGI (RPMI-8226 leukemia) [µM] | TGI (RXF 393 renal) [µM] | TGI (SF-268 CNS) [µM] | TGI (SF-539 CNS) [µM] | TGI (SK-MEL-28 melanoma) [µM] | TGI (SK-OV-3 ovarian) [µM] | TGI (SN12C renal) [µM] | TGI (SNB-19 CNS) [µM] | TGI (SW-620 colon) [µM] | TGI (UACC-257 melanoma) [µM] | TGI (UACC-62 melanoma) [µM] |
| --- | --- | --- | --- | --- | --- | --- | --- | --- | --- | --- | --- | --- | --- | --- | --- | --- | --- | --- | --- | --- |
| COC(=O)C(=O)C(C(=O)Nc1cccc(C)c1C)C1Sc2ccccc2NC1=O (stereo not given) | > 25 | > 25 | > 25 | > 25 | > 25 | > 25 | > 25 | > 25 | > 25 | > 25 | 23.8 | > 25 | > 25 | > 25 | > 25 | > 25 | > 25 | > 25 | > 25 | > 25 |
| Cc1c2cc[nH]c(C(F)(F)F)c2cc2c1nc1ccccc12 | > 125 | > 125 | > 125 | > 125 | > 125 | > 125 | > 125 | > 125 | > 78.9 | > 78.9 | > 125 | > 125 | > 125 | > 125 | > 125 | > 125 | > 125 | > 125 | > 125 | > 125 |
| Cn1cnc([N+](=O)[O-])c1Sc1nc2cc(Cl)c(F)cc2[nH]1 | 22 | 22.7 | 16.5 | 20.7 | 20.6 | > 100 | 28.9 | 23.9 | 6.29 | 40.3 | 9.93 | 29.5 | 16.7 | 27.3 | 61.9 | 29.7 | > 100 | 22.4 | 25.2 | 28.6 |
